System: 556581-035-R-J1-PDC complex spheroid viability
Test: Anticancer human tumor 556581-035-R-J1-PDC patient-derived ovarian carcinoma cell line growth inhibition
Conditions: for IC50: curve of first compound; for viability, T/C: stronger effect = lower value
Procedure, shortened: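 Multicellular complex spheroids of tumor cells with human endothelial cells (HUVEC) and mesenchymal stem cells; the LSD1 inhibitor iadademstat was combined with standard-of-care or investigational agents. Top concentration at or near clinical Cmax, half-log dilutions; final DMSO ≤0.25%.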

[1] = second compound 0.1 µM, first compound 0.0316 µM
[2] = second compound 0.1 µM, first compound 0.1 µM
[3] = second compound 0.1 µM, first compound 0.316 µM
[4] = second compound 0.1 µM, first compound 1 µM
[5] = second compound 0.1 µM, first compound 3.16 µM
[6] = second compound 0.1 µM, first compound 10 µM
[7] = second compound 0.316 µM, first compound 0.0316 µM
[8] = second compound 0.316 µM, first compound 0.1 µM
[9] = second compound 0.316 µM, first compound 0.316 µM
[10] = second compound 0.316 µM, first compound 1 µM
[11] = second compound 0.316 µM, first compound 3.16 µM
[12] = second compound 0.316 µM, first compound 10 µM
[13] = second compound 1 µM, first compound 0.0316 µM
[14] = second compound 1 µM, first compound 0.1 µM
[15] = second compound 1 µM, first compound 0.316 µM
[16] = second compound 1 µM, first compound 1 µM
[17] = second compound 1 µM, first compound 3.16 µM
[18] = second compound 1 µM, first compound 10 µM
[19] = second compound 3.16 µM, first compound 0.0316 µM
[20] = second compound 3.16 µM, first compound 0.1 µM
[21] = second compound 3.16 µM, first compound 0.316 µM
[22] = second compound 3.16 µM, first compound 1 µM
[23] = second compound 3.16 µM, first compound 3.16 µM
[24] = second compound 3.16 µM, first compound 10 µM
[25] = second compound 10 µM, first compound 0.0316 µM
[26] = second compound 10 µM, first compound 0.1 µM
[27] = second compound 10 µM, first compound 0.316 µM
[28] = second compound 10 µM, first compound 1 µM
[29] = second compound 10 µM, first compound 3.16 µM
[30] = second compound 10 µM, first compound 10 µM
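Also: spheroids exposed to agents for seven days.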
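For viability, T/C in this document: 100% = DMSO vehicle control wells.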

Row | SMILES | IC50 (second compound 0.1 µM) | IC50 (second compound 0.316 µM) | IC50 (second compound 1 µM) | IC50 (second compound 3.16 µM) | IC50 (second compound 10 µM) | viability, T/C [1] | viability, T/C [2] | viability, T/C [3] | viability, T/C [4] | viability, T/C [5] | viability, T/C [6] | viability, T/C [7] | viability, T/C [8] | viability, T/C [9] | viability, T/C [10] | viability, T/C [11] | viability, T/C [12] | viability, T/C [13] | viability, T/C [14] | viability, T/C [15] | further results
1 | CC(C)c1c(-c2ccccc2)nc2c(C#N)c[nH]n2c1=O + NC1CCC(NC2CC2c2ccccc2)CC1 | > 10000 nM | > 10000 nM | > 10000 nM | 8290 nM | 4840 nM | 93.2% | 94.5% | 90.9% | 87.9% | 83% | 56.5% | 87% | 79.1% | 86.3% | 78.3% | 71.4% | 54.4% | 72.2% | 78.2% | 78% | viability, T/C [16]: 82.3%; viability, T/C [17]: 78.7%; viability, T/C [18]: 53.7%; viability, T/C [19]: 85.4%; viability, T/C [20]: 76.4%; viability, T/C [21]: 77.8%; viability, T/C [22]: 76%; viability, T/C [23]: 68.3%; viability, T/C [24]: 46.2%; viability, T/C [25]: 70%; viability, T/C [26]: 73.8%; viability, T/C [27]: 76%; viability, T/C [28]: 66.8%; viability, T/C [29]: 54%; viability, T/C [30]: 43.7%
2 | COc1ccc([C@@H](O)c2cc(-c3ncnc4cc(N5CCOCC5)ccc34)c(F)cc2Cl)nn1 + NC1CCC(NC2CC2c2ccccc2)CC1 | 943 nM | 582 nM | 906 nM | 847 nM | 639 nM | 91% | 80.4% | 69% | 47.9% | 37.7% | 32.9% | 80.3% | 81.6% | 60.6% | 39.9% | 37.7% | 28.8% | 76% | 76.1% | 66.9% | viability, T/C [16]: 46.6%; viability, T/C [17]: 35.6%; viability, T/C [18]: 25.6%; viability, T/C [19]: 79.5%; viability, T/C [20]: 78.6%; viability, T/C [21]: 65.3%; viability, T/C [22]: 45.3%; viability, T/C [23]: 37%; viability, T/C [24]: 25.9%; viability, T/C [25]: 63.2%; viability, T/C [26]: 63.2%; viability, T/C [27]: 56.3%; viability, T/C [28]: 44.6%; viability, T/C [29]: 33.3%; viability, T/C [30]: 17%

— PubChem BioAssay AID1918938 (Molecular Pharmacology Branch, DTP, NCI, 2023)
